Source: patent publication US20030134774A1, “Methods for inhibiting cardiac disorders” (priority 2001, published 2003)

Key:
[1] = system: ERK1/2; test: Phospho-ERK1/2 Western blot in cardiomyocytes; format: cell-based, rat; conditions: cardiomyocytes; for effect on ERK phosphorylation/activation by rPMT: rPMT 400 ng/ml 24 hr
Protocol: (§1) rPMT promotes the activation of ERK1/2, JNK and p38-MAPK cascades. Incubations were for 24 hr in the presence of the indicated concentrations of rPMT. PMA (100 nM, 5 min) and sorbitol ([…], 5 min) were included as positive controls. Cell lysates were subjected to SDS-PAGE followed by Western blotting as described in Methods below. Phosphorylated forms of ERK1/2 (A), p38 MAP kinase (B) or JNK (C) were detected by specific anti-phospho-ERK1/2, -p38 MAP kinase or -JNK antibodies, respectively. Blots were stripped and subjected to immunoblot analysis with total ERK1/2 or p38 MAP kinase to normalize for minor variations in protein loading (Panels A and B). Top: representative autoradiograms (with each lane from a single gel exposed for the same duration). Bottom: quantification of each series of experiments (n=3).
(§2) rPMT transactivation of the EGF receptor in cardiac fibroblasts, but not cardiomyocytes. Neonatal rat cardiomyocytes (Panel A) and cardiac fibroblasts (Panel B) were treated with rPMT (400 ng/ml) for 24 hr or EGF (50 ng/ml) for 5 min without or with AG1478 (2 μM, starting 30 min prior to stimulation). Cell lysates were subjected to SDS-PAGE followed by Western blotting with the anti-phospho-ERK1/2 antibody. Data are from a representative gel, with similar results obtained in 3 separate experiments.
Specific immunoreactivity for individual PKC isoforms was quantified according to methods described previously. For assays of MAPKs and AKT, cells were exposed to test agents as indicated in individual experimental protocols, washed three times with ice-cold calcium/magnesium-free Dulbecco's PBS (pH 7.1), scraped into ice-cold extraction buffer [20 mM β-glycerophosphate pH 7.5, 20 mM sodium fluoride, 2 mM EDTA, 0.2 mM sodium vanadate, 10 μg/ml aprotinin, 25 μg/ml leupeptin, 50 μg/ml PMSF, and 0.3% (v/v) β-mercaptoethanol], lysed by sonication, and centrifuged at 10,000 g for 10 min at 4° C. […] Bands were detected by enhanced chemiluminescence and blots were quantified by laser scanning densitometry.

[2] = system: ERK1/2 in cardiac fibroblasts; test: Phospho-ERK1/2 Western blot in cardiac fibroblasts; format: cell-based, rat; conditions: AG1478 2 μM
Protocol: as §2
Cardiac myocytes were dissociated from the ventricles of two-day-old Wistar rats by a trypsin digestion protocol which incorporates a differential attachment procedure to enrich for cardiac myocytes, as described previously (13). For some experiments, attached cells were maintained as fibroblast cultures. For studies of inositol phosphates, MAPKs, AKT, and PKC cardiomyocytes were plated at a density of 5×10^5 cells per ml (2 ml per 35-mm dish; 1 ml per 22.1-mm dish) and were cultured in MEM supplemented with 10% fetal calf serum. […]
(§3) Specific immunoreactivity for individual PKC isoforms was quantified according to methods described previously. […] Bands were detected by enhanced chemiluminescence and blots were quantified by laser scanning densitometry.

[3] = molecular target: T1, PKC-ε (Rattus norvegicus, UniProt P09216); test: Western blot with anti-phospho-PKC antibody in cardiomyocytes; format: cell-based; conditions: for PKC-ε phosphorylation/activation (phospho-PKC band pattern): NE 10 μM or PMA 100 nM for 5 min
T1 construct: PKCε is detected as a single band in quiescent cardiomyocytes; endogenous in cells; host or cells: cultured neonatal rat ventricular cardiomyocytes
T1 sequence (P09216 1-737): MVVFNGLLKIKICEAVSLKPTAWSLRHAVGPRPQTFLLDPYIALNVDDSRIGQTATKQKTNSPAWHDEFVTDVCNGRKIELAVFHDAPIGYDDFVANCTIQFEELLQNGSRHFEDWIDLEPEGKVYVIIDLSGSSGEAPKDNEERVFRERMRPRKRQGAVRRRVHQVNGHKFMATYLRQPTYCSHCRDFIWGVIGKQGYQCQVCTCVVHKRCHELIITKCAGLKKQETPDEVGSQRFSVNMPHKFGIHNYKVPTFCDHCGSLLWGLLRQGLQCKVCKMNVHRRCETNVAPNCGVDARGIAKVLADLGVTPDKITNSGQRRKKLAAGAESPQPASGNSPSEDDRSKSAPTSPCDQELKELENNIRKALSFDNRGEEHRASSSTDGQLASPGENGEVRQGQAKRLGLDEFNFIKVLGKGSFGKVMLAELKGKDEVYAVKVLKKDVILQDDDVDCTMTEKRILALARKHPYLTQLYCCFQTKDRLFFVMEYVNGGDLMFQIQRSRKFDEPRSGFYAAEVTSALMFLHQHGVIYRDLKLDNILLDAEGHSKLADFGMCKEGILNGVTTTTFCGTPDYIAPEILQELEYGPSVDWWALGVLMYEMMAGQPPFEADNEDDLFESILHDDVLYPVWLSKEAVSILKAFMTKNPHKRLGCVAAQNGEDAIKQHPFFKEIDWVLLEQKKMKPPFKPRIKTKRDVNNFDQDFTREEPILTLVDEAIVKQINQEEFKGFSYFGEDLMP
Protocol: (§4) rPMT selectively activates nPKC isoforms. Cardiomyocyte cultures were incubated in culture medium without or with NE (10 μM), rPMT (400 ng/ml) or PMA (100 nM) for 24 hr (Panels A and C) or 5 min (Panel B). Soluble extracts were prepared and separated by SDS-PAGE followed by immunodetection of total PKC isoform abundance with antibodies that are specific for the individual PKC isoforms (Panel A), or phosphorylated forms of PKC (largely PKCε) with a pan-phospho-PKC antibody (Panels B and C), as described in Methods below. GF109203 was included at 5 μM 30 min prior to stimulation as indicated.
(§5) Specific immunoreactivity for individual PKC isoforms was quantified according to methods described previously. For assays of MAPKs and AKT, cells were exposed to test agents as indicated in individual experimental protocols, washed three times with ice-cold calcium/magnesium-free Dulbecco's PBS (pH 7.1), scraped into ice-cold extraction buffer [20 mM β-glycerophosphate pH 7.5, 20 mM sodium fluoride, 2 mM EDTA, 0.2 mM sodium vanadate, 10 μg/ml aprotinin, 25 μg/ml leupeptin, 50 μg/ml PMSF, and 0.3% (v/v) β-mercaptoethanol], lysed by sonication, and centrifuged at 10,000 g for 10 min at 4° C. The supernatant was diluted in SDS-PAGE sample buffer, boiled for 5 min, and stored at −70° C. Western blot analysis was performed with antibodies that are selective for the phosphorylated (activated) forms of ERK1/2, p38-MAPK, JNK, AKT, and pan-PKC according to manufacturer's instructions. For each panel in each Figure, the results are from a single gel exposed for a uniform duration. Bands were detected by enhanced chemiluminescence and blots were quantified by laser scanning densitometry.

[4] = system: PKC isoforms; test: Immunoblot of PKC isoform partitioning and down-regulation in cardiomyocytes; format: cell-based, rat; conditions: 24 hr experiments
Protocol: as §4, with “Cardiomyocyte cultures were incubated in culture medium without or with NE (10 μM), rPMT (400 ng/ml) or PMA (100 nM) for 24 hr (Panels A and C) or 5 min (Panel B).” left out
(§6) Cells were maintained in culture in the presence of 10% FCS for 96 hr and then switched to serum-free medium for 24 hr prior to the addition of agonists as indicated. For PKC, extracts were prepared and subjected to SDS-PAGE to resolve individual isoforms according to methods described previously (14).
as §3

[5] = system: AKT; test: Phospho-AKT and total AKT Western blot in cardiomyocytes; format: cell-based, rat; conditions: for basal AKT phosphorylation after acute treatment: PMA 100 nM, NE 10 μM
Protocol: rPMT decreases basal AKT phosphorylation and prevents its phosphorylation by EGF. Neonatal rat cardiomyocytes were treated with rPMT (400 ng/ml) for 24 hr (Panel A), 48 hr (Panel B) or with EGF (50 ng/ml) for 5 min. Cell lysates were subjected to SDS-PAGE followed by Western blotting with antibodies that recognize the phosphorylated form or total AKT. Data are from representative gels, with similar results obtained in 3 separate experiments.
Panel A: Cells were treated with norepinephrine (NE, 10 μM) or PMA (100 nM) for 5 min without or with GF109203 (5 μM).
Panel B: Cells were treated with rPMT (400 ng/ml), NE (10 μM) or PMA (100 nM) for 24 hr without or with Go6983 (5 μM). […] Cell lysates were subjected to SDS-PAGE followed by Western blotting using a specific anti-phospho-AKT antibody. Data are from representative gels, with similar results obtained in 3 separate culture preparations.
as §5

[6] = system: p38-MAPK; test: Phospho-p38 MAP kinase Western blot in cardiomyocytes; format: cell-based, rat; conditions: rPMT 24 hr; sorbitol 5 min positive control
Protocol: as §1, §3

[7] = system: JNK; test: Phospho-JNK Western blot in cardiomyocytes; format: cell-based, rat; conditions: rPMT 24 hr; sorbitol 5 min positive control
Protocol: as §1, §3

[8] = system: ANF mRNA; test: Northern blot analysis of ANF mRNA in cardiomyocytes; format: cell-based, rat; conditions: rPMT 400 ng/ml or NE 10 μM, 48 hr, serum-free
Protocol: (§7) rPMT mimics the effect of norepinephrine to promote cardiomyocyte hypertrophy. Cardiomyocytes were cultured in serum-free medium without or with rPMT (400 ng/ml) or norepinephrine (NE, 10 μM) for 48 hr. Cardiomyocytes were fixed, permeabilized, and stained with monoclonal anti-α-actinin sarcomeric (Panel A, magnification×100) or subjected to Northern blot analysis for measurements of steady-state ANF mRNA expression (Panel B). Effects of rPMT (black bars) and NE (gray bars) vs. vehicle (white bars) on sarcomeric organization (Panel C), cell size (Panel D), and protein synthesis (Panel E) are illustrated (n=3 for each).
Total RNA from neonatal rat cardiomyocytes were isolated by using a Qiagen kit according to manufacturer's instructions. A rat ANF cDNA probe (˜600 bp) was labeled with [^32P]dCTP. 10 μ/g of total RNA was separated on a 1% agarose gel and transferred to a nylon membrane (Amersham). Prehybridization and hybridization were performed according to standard methods. Normalization of signals was performed with a glyceraldehyde-3-phosphate dehydrogenase probe. Signals were detected by Phosphorimage analysis.

[9] = system: cardiomyocytes; test: Cardiomyocyte growth: sarcomeric organization and cell size; format: cell-based, rat; conditions: rPMT 400 ng/ml or NE 10 μM, 48 hr, serum-free
Protocol: as §7
Cardiomyocyte growth was assessed by measuring cell surface area by digitized image analysis. For each experimental point, 7-10 frames/dish were recorded at 40× magnification with a video camera attached to a Nikon microscope which was calibrated with a micrometer.
Cardiomyocytes were grown on slides precoated with fibronectin. After treatment, cells were fixed with cold methanol and permeabilized with 0.1% Triton X-100 and 0.2% BSA. Cells were incubated with α-actinin monoclonal antibody overnight at 4° C. followed by anti-mouse IgG-Cy3-labeled antibody for 30 min at room temperature. Fluorescence microscopy images were obtained at 100× magnification.

[10] = system: PKCδ and PKCε; test: Immunoblot of nPKC isoform abundance in cardiomyocytes; format: cell-based, rat; conditions: 24 hr stimulation
Protocol: as §4, §6, §3

[11] = system: PKCα and PKCλ; test: Immunoblot of PKCα/PKCλ abundance and distribution in cardiomyocytes; format: cell-based, rat; conditions: 24 hr stimulation
Protocol: as §4, §6, §3

[12] = system: cardiomyocytes; test: Protein synthesis ([3H]phenylalanine incorporation) in cardiomyocytes; format: cell-based, rat; conditions: rPMT 400 ng/ml or NE 10 μM, 48 hr, serum-free
Protocol: as §7
As a second index of cardiomyocyte growth, relative rates of protein synthesis were measured as radiolabeled phenylalanine incorporation into cell protein. Cells were stimulated in serum-free medium with agonists (or vehicle as control) for 48 hr at 37° C. The medium was replaced with serum-free medium containing [^3H]phenylalanine (0.1 μCi/ml) and non-radioactive phenylalanine (0.3 mM, to minimize variations in the specific activity of the precursor pool responsible for protein synthesis) during the final 24 hr of stimulation. Cells were rinsed with PBS and incubated in 10% trichloroacetic acid for 30 min on ice. […] Aliquots of the SDS-soluble protein were counted in 5 ml of scintillant.

COc1cc2ncnc(Nc3cccc(Cl)c3)c2cc1OC [AG1478, reference compound]
effect on EGF receptor-mediated ERK phosphorylation ([1]; AG1478 2 μM, EGF 50 ng/ml 5 min): effectively blocks | effect on ERK phosphorylation/activation by rPMT [1]: only a very minor reduction | effect on ERK activation by EGF [2]: marked effect to prevent ERK activation | effect on ERK activation by rPMT [2]: marked effect to prevent ERK activation

CN(C)CCCn1cc(C2=C(c3c[nH]c4ccccc34)C(=O)NC2=O)c2ccccc21 [GF109203, reference compound]
effect on ERK phosphorylation/activation by rPMT [1]: markedly inhibited | effect on appearance of the more highly phosphorylated PKC-ε band induced by NE or PMA ([3]; inhibitor 5 μM, 30 min prior to stimulation): prevented | inhibition of PMA-dependent down-regulation of PKC isoforms [4]: did not | effect on inhibitory modulation of AKT phosphorylation by PMA ([5]; GF109203 5 μM, 5 min PMA): prevented

EGF: epidermal growth factor
AKT activation in control cultures ([5]; EGF 50 ng/ml, 5 min): robust

OC[C@@H](O)[C@@H](O)[C@H](O)[C@@H](O)CO [sorbitol, reference compound]
magnitude of p38-MAPK activation [6]: strong activation | magnitude of JNK activation [7]: strong activation

CCCCCCCCCCCCCC(=O)O[C@@H]1[C@@H](C)[C@@]2(O)[C@@H](C=C(CO)C[C@]3(O)C(=O)C(C)=C[C@@H]23)[C@@H]2C(C)(C)[C@]12OC(C)=O [PMA, reference compound]
phospho-PKC immunoreactivity during pharmacologic down-regulation ([3]; 24 hrs): drastically reduced | PKC-ε phosphorylation/activation (phospho-PKC band pattern) [3]: slower mobility, more-highly phosphorylated species | basal AKT phosphorylation after acute treatment ([5]; 5 min): reduce basal AKT phosphorylation | basal AKT phosphorylation after 24 hr treatment ([5]; 24 hr, relative to control cultures): reduced

NC[C@H](O)c1ccc(O)c(O)c1 [NE, norepinephrine, reference compound]
ANF mRNA expression [8]: induce ANF mRNA expression | PKC-ε phosphorylation/activation (phospho-PKC band pattern) [3]: slower mobility, more-highly phosphorylated species | cell size (cellular enlargement) [9]: induce marked cellular enlargement | myofibrillar (sarcomeric) organization [9]: promote myofibrillar organization | basal AKT phosphorylation after acute treatment ([5]; 5 min): not | abundance of PKCδ and PKCε in the soluble fraction [10]: significantly reduce | abundance and subcellular distribution of PKCα and PKCλ [11]: is not altered | [3H]phenylalanine incorporation (protein synthesis) [12]: enhance [^3H]phenylalanine incorporation

COc1ccc2c(c1)c(C1=C(c3c[nH]c4ccccc34)C(=O)NC1=O)cn2CCCN(C)C [Go6983, reference compound]
inhibition of PMA-dependent down-regulation of PKC isoforms [4]: completely inhibited | effect on negative regulation of AKT by rPMT ([5]; Go6983 5 μM, 24 hr): abrogates
